Assay results from ChEMBL document CHEMBL1862790, “Optimisation of fenarimol series for the treatment of Chagas disease”.

What was measured:
[1] = DNDI: Cytotoxicity against L-6 rat myoblasts from skeletal muscle cells; conditions: L6 rat skeletal muscle myoblast cells, IC50
Trypanosoma cruzi [2] = assay: microbe, parasite or virus in culture; format: functional, organism-based, Tulahuen LacZ, Clone C4; conditions: Trypanosoma cruzi, Tulahuen LacZ, Clone C4
Trypanosoma cruzi [3] = assay: microbe, parasite or virus in culture; format: functional, Tulahuen LacZ, Clone C4; conditions: Trypanosoma cruzi, Tulahuen LacZ, Clone C4

| SMILES | IC50 [1] | IC50 (Trypanosoma cruzi [2]) | IC90 (Trypanosoma cruzi [3]) |
| --- | --- | --- | --- |
| Fc1cc(Cl)ccc1C(NC1CCN(c2ccc(F)c(C(F)(F)F)c2)CC1)c1cccnc1 (stereo unspecified) | 58600 nM | 25.6 nM | 64 nM |
| COc1cncc(N2CCC(NC(c3ccc(Cl)cc3)c3cccnc3)CC2)c1 (stereo unspecified) | 58900 nM | 42 nM | 96 nM |
| Cc1noc(C)c1C(=O)NC1CCN(C(c2ccc(C(F)(F)F)cc2)c2cccnc2)CC1 (stereo unspecified) | > 100000 nM | 9 nM | 28 nM |
| Fc1cc(Cl)ccc1C(NC1CCN(c2ccc(Cl)cc2)CC1)c1cccnc1 (stereo unspecified) | 47200 nM | 7.5 nM | 25 nM |
| Cn1cc(CN2CCC(NC(c3ccc(Cl)cc3)c3cccnc3)CC2)c(C(F)(F)F)n1 (stereo unspecified) | 51300 nM | 52 nM | 85 nM |
| Cc1nc(C(=O)NC2CCN(C(c3ccc(C(F)(F)F)cc3)c3cccnc3)CC2)co1 (stereo unspecified) | 56400 nM | 19.5 nM | 44 nM |
| Fc1cc(Cl)ccc1N1CCC(NC(c2ccc(Cl)cc2)c2cccnc2)CC1 (stereo unspecified) | 56700 nM | 19.8 nM | 35 nM |
| Fc1ccccc1OC1CCN(C(c2ccc(C(F)(F)F)cc2)c2cccnc2)CC1 (stereo unspecified) | 67800 nM | 62 nM | > 90 nM |
| Cc1nocc1C(=O)NC1CCN(C(c2ccc(C(F)(F)F)cc2)c2cccnc2)CC1 (stereo unspecified) | 65300 nM | 15.5 nM | 176 nM |
| CCn1cc(C(NC2CCN(c3ccc(C(F)(F)F)cc3)CC2)c2cccnc2)cn1 (stereo unspecified) | > 100000 nM | 53.5 nM | 92 nM |
| Clc1ccc(C(NC2CCN(c3ccc(Br)cn3)CC2)c2cccnc2)cc1 (stereo unspecified) | 61800 nM | 25.7 nM | 84 nM |
| FC(F)(F)c1ccc(N(CC2CCN(c3ccc(Cl)cc3)CC2)c2cccnc2)cc1 | 76300 nM | 19 nM | 41 nM |
| Cc1nc(C(=O)NC2CCN(C(c3ccc(C(F)(F)F)cc3)c3cccnc3)CC2)cs1 (stereo unspecified) | 43800 nM | 17.5 nM | 41 nM |
| N#Cc1ccnc(N2CCC(NC(c3ccc(Cl)cc3)c3cccnc3)CC2)n1 (stereo unspecified) | 57100 nM | 60 nM | 86 nM |
| CC(O)C(C)N1CCC(NC(c2ccc(Cl)cc2)c2cccnc2)CC1 (stereo unspecified) | > 100000 nM | 1810 nM | 3160 nM |
| Fc1cc(Cl)ccc1C(NC1CCN(c2ccc(OC(F)(F)F)cc2)CC1)c1cccnc1 (stereo unspecified) | 48000 nM | 8 nM | 24 nM |
| Fc1cc(Cl)ccc1C(NC1CCN(c2nccc(C(F)(F)F)n2)CC1)c1cccnc1 (stereo unspecified) | 55400 nM | 22.5 nM | 63 nM |
| FC(F)(F)c1ccc(C(c2cccnc2)N2CCC(Oc3ccccc3Cl)CC2)cc1 (stereo unspecified) | 60100 nM | 41 nM | 93 nM |
| N#Cc1cnc(N2CCC(NC(c3cccnc3)c3ccc(Cl)cc3F)CC2)s1 (stereo unspecified) | 55700 nM | 21 nM | 44.5 nM |
| CC(C)(C)OC(=O)N1CCC(CN(c2ccc(C(F)(F)F)cc2)c2cccnc2)CC1 | 51700 nM | 28 nM | 67 nM |
| Fc1cc(Cl)ccc1C(NC1CCN(c2ccccc2C(F)(F)F)CC1)c1cccnc1 (stereo unspecified) | 57000 nM | 17 nM | 64.5 nM |
| FC(F)(F)c1ccc(N2CCC(NC(c3cccnc3)c3cnn(Cc4ccccc4)c3)CC2)cc1 (stereo unspecified) | 51600 nM | 6 nM | 11 nM |
| O=C(c1ccccc1)N1CCC(CN(c2ccc(C(F)(F)F)cc2)c2cccnc2)CC1 | 51400 nM | 43 nM | 86 nM |

| SMILES | IC50 [1] | IC50 (Trypanosoma cruzi [2]) | IC90 (Trypanosoma cruzi [3]) |
| --- | --- | --- | --- |
| Cc1ncsc1C(=O)N1CC(NC(c2ccc(C(F)(F)F)cc2)c2cccnc2)C1 (stereo unspecified) | > 100000 nM | 186 nM | 553 nM |
| CC(C)(C)N1CCC(NC(c2ccc(Cl)cc2)c2cccnc2)CC1 (stereo unspecified) | > 100000 nM | 3060 nM | 8660 nM |
| Cc1cc(C(=O)NC2CCN(C(c3ccc(C(F)(F)F)cc3)c3cccnc3)CC2)n(C)n1 (stereo unspecified) | 54600 nM | 12 nM | 28.5 nM |
| Fc1ccc(N2CCC(NC(c3cccnc3)c3ccc(Cl)cc3F)CC2)cc1Cl (stereo unspecified) | 54500 nM | 28.5 nM | 72 nM |
| Fc1cnc(N2CCC(NC(c3cccnc3)c3ccc(Cl)cc3F)CC2)nc1 (stereo unspecified) | 73300 nM | 32 nM | 93.5 nM |
| Clc1ccc(CN2CCC(NC(c3ccc(Cl)cc3)c3cccnc3)CC2)cc1 (stereo unspecified) | 20300 nM | 66 nM | 98 nM |
| N#Cc1cc(N2CCC(NC(c3cccnc3)c3ccc(Cl)cc3F)CC2)ccc1F (stereo unspecified) | 38400 nM | 20.7 nM | 47 nM |
| FC(F)(F)c1ccc(N2CCC(NC(c3ccc(Cl)cc3)c3cccnc3)CC2)cc1 (stereo unspecified) | 53500 nM | 11 nM | 27.5 nM |
| Fc1ccc(N2CCC(NC(c3cccnc3)c3ccc(Cl)cc3F)CC2)cc1 (stereo unspecified) | 55400 nM | 19 nM | 53 nM |
| Fc1ccc(N2CCC(NC(c3cccnc3)c3ccc(Cl)cc3F)CC2)cc1F (stereo unspecified) | 34200 nM | 14 nM | 42 nM |
| O=S(=O)(c1ccc(C(F)(F)F)cc1)N1CCC(NC(c2cccnc2)c2ccc(Cl)cc2F)CC1 (stereo unspecified) | 18000 nM | 36 nM | 95 nM |
| FC(F)(F)c1ccc(C(c2cccnc2)N2CCC(Oc3cccc(Cl)c3)CC2)cc1 (stereo unspecified) | 61200 nM | 59 nM | > 100 nM |
| Cn1cc(C(NC2CCN(c3ccc(C(F)(F)F)cc3)CC2)c2cccnc2)cn1 (stereo unspecified) | > 100000 nM | 102 nM | 249 nM |
| CC(C)(O)CN1CCC(NC(c2ccc(Cl)cc2)c2cccnc2)CC1 (stereo unspecified) | > 100000 nM | 565 nM | 1020 nM |
| NC(=O)c1cccc(N2CCC(NC(c3cccnc3)c3ccc(Cl)cc3F)CC2)c1 (stereo unspecified) | > 100000 nM | 71.5 nM | > 100 nM |
| Fc1cc(Cl)ccc1C(NC1CCN(Cc2ccc(C(F)(F)F)cc2)CC1)c1cccnc1 (stereo unspecified) | 26600 nM | 48 nM | 93 nM |
| COc1ccc(N2CCC(NC(c3cccnc3)c3ccc(Cl)cc3F)CC2)cc1F (stereo unspecified) | 47900 nM | 7.3 nM | 22 nM |
| Fc1ccc(N2CCC(NC(c3cccnc3)c3ccc(Cl)cc3F)CC2)c(C(F)(F)F)c1 (stereo unspecified) | 58900 nM | 32 nM | 50 nM |
| CC(=O)C(C)N1CCC(NC(c2ccc(Cl)cc2)c2cccnc2)CC1 (stereo unspecified) | 87700 nM | 42.3 nM | 76 nM |
| O=C(NC1CCN(C(c2ccc(C(F)(F)F)cc2)c2cccnc2)CC1)c1ccccc1C(F)(F)F (stereo unspecified) | > 100000 nM | 6 nM | 10 nM |
| Cn1cc(C(=O)NC2CCN(C(c3ccc(C(F)(F)F)cc3)c3cccnc3)CC2)c(C(F)(F)F)n1 (stereo unspecified) | 53400 nM | 16 nM | 36.5 nM |
| Fc1ccc(N2CCC(NC(c3ccc(Cl)cc3)c3cccnc3)CC2)cc1C(F)(F)F (stereo unspecified) | 52300 nM | 24 nM | 63 nM |
| NC(=O)c1ccccc1N1CCC(NC(c2cccnc2)c2ccc(Cl)cc2F)CC1 (stereo unspecified) | 71800 nM | 76 nM | > 100 nM |

| SMILES | IC50 [1] | IC50 (Trypanosoma cruzi [2]) | IC90 (Trypanosoma cruzi [3]) |
| --- | --- | --- | --- |
| CCn1cc(C(NC2CCN(c3ccc(OC(F)(F)F)cc3)CC2)c2cccnc2)cn1 (stereo unspecified) | 73900 nM | 103 nM | 298 nM |
| N#Cc1ccccc1OC1CCN(C(c2ccc(C(F)(F)F)cc2)c2cccnc2)CC1 (stereo unspecified) | 57800 nM | 48 nM | 90 nM |
| Cc1nc(C)c(C(=O)NC2CCN(C(c3ccc(C(F)(F)F)cc3)c3cccnc3)CC2)s1 (stereo unspecified) | 55700 nM | 18 nM | 31 nM |
| CSc1ccc(N2CCC(NC(c3ccc(Cl)cc3)c3cccnc3)CC2)cc1 (stereo unspecified) | 30200 nM | 7 nM | 19 nM |
| Fc1cc(Cl)ccc1C(NC1CCN(Cc2ccc(Cl)cc2Cl)CC1)c1cccnc1 (stereo unspecified) | 43000 nM | 39 nM | 92 nM |
| CC(C)n1cc(C(NC2CCN(c3ccc(C(F)(F)F)cc3)CC2)c2cccnc2)cn1 (stereo unspecified) | 77000 nM | 29 nM | 81 nM |
| Fc1ccc(OC2CCN(C(c3ccc(C(F)(F)F)cc3)c3cccnc3)CC2)cc1 (stereo unspecified) | 23800 nM | 21 nM | 30 nM |
| Fc1cnc(N2CCC(NC(c3ccc(Cl)cc3)c3cccnc3)CC2)nc1 (stereo unspecified) | 58200 nM | 34 nM | 88 nM |
| CC(c1ccc(C(F)(F)F)cc1)N1CCC(NC(c2cccnc2)c2ccc(Cl)cc2F)CC1 (stereo unspecified) | 19500 nM | 75 nM | > 100 nM |
| Fc1ccccc1N1CCC(NC(c2ccc(C(F)(F)F)cc2)c2cccnc2)CC1 (stereo unspecified) | 53100 nM | 17 nM | 30.5 nM |
| Cc1noc(C)c1C(=O)N1CCC(CN(c2ccc(C(F)(F)F)cc2)c2cccnc2)CC1 | 72400 nM | 86 nM | > 100 nM |
| FC(F)(F)c1ccc(C(c2cccnc2)N2CCC(Oc3ccccc3)CC2)cc1 (stereo unspecified) | 54400 nM | 26.5 nM | > 100 nM |
| N#Cc1ccccc1N1CCC(NC(c2ccc(C(F)(F)F)cc2)c2cccnc2)CC1 (stereo unspecified) | 52300 nM | 7 nM | 20.5 nM |
| Fc1cc(Cl)cc(N2CCC(NC(c3cccnc3)c3ccc(Cl)cc3F)CC2)c1 (stereo unspecified) | 53100 nM | 19 nM | 50 nM |
| Clc1ccc(C(NC2CCN(c3ccc(Cl)cn3)CC2)c2cccnc2)cc1 (stereo unspecified) | 66800 nM | 35 nM | 76 nM |
| N#Cc1cnc(N2CCC(NC(c3ccc(Cl)cc3)c3cccnc3)CC2)s1 (stereo unspecified) | 48600 nM | 17 nM | 25 nM |
| CCn1cc(C(NC2CCN(c3ccc(S(C)(=O)=O)cc3)CC2)c2cccnc2)cn1 (stereo unspecified) | > 100000 nM | 6040 nM | > 10000 nM |
| Fc1cc(Cl)ccc1C(NC1CCN(c2nc3ccccc3s2)CC1)c1cccnc1 (stereo unspecified) | > 100000 nM | 265 nM | 570 nM |
| CC(c1ccccc1)N1CCC(NC(c2cccnc2)c2ccc(Cl)cc2F)CC1 (stereo unspecified) | 19100 nM | 314 nM | 597 nM |
| COc1ccc(CN2CCC(NC(c3cccnc3)c3ccc(Cl)cc3F)CC2)cc1 (stereo unspecified) | 52000 nM | 370 nM | 4380 nM |
| Cc1cc(C(=O)NC2CCN(C(c3ccc(C(F)(F)F)cc3)c3cccnc3)CC2)n(C(C)(C)C)n1 (stereo unspecified) | > 100000 nM | 13.5 nM | 26.5 nM |
